Laboratory results reported in BindingDB's records for aid1799748 (Csar, 2012).

Biological target: Urokinase-type plasminogen activator (Homo sapiens, UniProt P00749)
Assay: Abbott uPA__Urokinase Human - Ki(uM)
Settings: pH 7.4; 25 °C

Question: `COC(=O)Nc1cc(C(=O)Nc2ccc(CN)cc2)cc2ccc(C(=N)N)cc12` [uPa_17] was tested. Which Ki did it give?
Answer: 0.9 nM

Question: How did the Ki turn out when `N=C(N)c1ccc2cc(/C=C/CCc3cccnc3)cc(Br)c2c1` [uPa_32] was run?
Answer: 3080 nM

Question: For `CN(CC#N)C(=O)c1ccc2ccc(N)nc2c1` [uPa_35], which Ki is on record?
Answer: > 100000 nM

Question: `COc1cc(C2CC2c2ccc3c(c2)C(C(C)C)N(C)CC3)cc2ccc(C(=N)N)cc12` (stereo not drawn) [uPa_42] was tested. Which Ki did it give?
Answer: 94 nM

Question: How did the Ki turn out when `Nc1cnc2ccccc2n1` [uPa_1] was run?
Answer: > 50000 nM

Question: `CS(=O)(=O)n1cc(-c2cc(C(=O)Nc3ccccc3)cc3ccc(C(=N)N)cc23)cn1` [uPa_20] was tested. Which Ki did it give?
Answer: 769 nM

Question: With `Nc1cc2ccccc2cn1` as the molecule, how does the Ki read?
Answer: > 30000 nM

Question: With `CN1CCc2ccc(/C=C/c3ccc4cc(C(=N)N)ccc4c3)cc2C1C1CCCCC1` (stereo not drawn) [uPa_40] as the molecule, how does the Ki read?
Answer: 223 nM

Question: How did the Ki turn out when `N=C(N)c1ccc2cc(C(=O)Nc3ccccc3)cc(-c3ncccn3)c2c1` [uPa_21] was run?
Answer: 7850 nM

Question: How did the Ki turn out when `N=C(N)NC(=O)c1nc(Cl)c(NCc2cc(Cl)cc(Cl)c2)nc1N` [uPa_22] was run?
Answer: 3570 nM

Question: How did the Ki turn out when `COc1cc2ccc(C(=N)N)cc2c(OC)c1OC` [uPa_2] was run?
Answer: 8030 nM

Question: How did the Ki turn out when `Nc1ccc2nc(N)ccc2c1` [uPa_23] was run?
Answer: > 104000 nM

Question: Which Ki does the source give for `COC(=O)Nc1ccc2nc(C(=N)N)ccc2c1` [uPa_27] here?
Answer: > 50000 nM

Question: With `CC(C)C1=NCCc2ccc(NC(=O)c3cc(Br)c4cc(C(=N)N)ccc4c3)cc21` [uPa_26] as the molecule, how does the Ki read?
Answer: 16 nM

Question: With `CN1CCc2ccc(C3CC3c3ccc4cc(C(=N)N)ccc4c3)cc2C1c1cccnc1` (stereo not drawn) [uPa_44] as the molecule, how does the Ki read?
Answer: 1250 nM

Question: For `CC(C)CN(CC(C)C)C(=O)c1ccc2ccc(N)nc2c1` [uPa_34], which Ki is on record?
Answer: > 100000 nM

Question: `COc1ccc2ccc(C(=N)N)cc2c1-c1cnn(C(C)C)c1` [uPa_11] was tested. Which Ki did it give?
Answer: 4500 nM

Question: With `N=C(N)c1ccc2cc(C#Cc3cccc(OC4CCCC4)c3)ccc2c1` [uPa_25] as the molecule, how does the Ki read?
Answer: 665 nM

Question: For `COC(=O)Nc1cc(C(=O)Nc2ccccc2)cc2ccc(C(=N)N)cc12` [uPa_36], which Ki is on record?
Answer: 18 nM

Question: How did the Ki turn out when `N=C(N)NC(=O)c1ccc(Cl)c(S(N)(=O)=O)c1` [uPa_45] was run?
Answer: > 100000 nM

Question: Which Ki does the source give for `N=C(N)c1ccc2cc(C(=O)Nc3ccc4c(c3)C(c3ccccc3)=NCC4)ccc2c1` [uPa_29] here?
Answer: 290 nM

Question: With `COc1cc(NC(=O)c2ccc3cc(C(=N)N)ccc3c2)cc(OC(C)C)c1` [uPa_28] as the molecule, how does the Ki read?
Answer: 33 nM

Question: How did the Ki turn out when `CC(C)Oc1ccc2cc(C(=N)N)ccc2c1` [uPa_5] was run?
Answer: 7280 nM

Question: With `CS(=O)(=O)Nc1cc(CCc2ccccc2)cc2ccc(C(=N)N)cc12` [uPa_37] as the molecule, how does the Ki read?
Answer: 1490 nM

Question: For `C#CCN(C)C(=O)c1ccc2ccc(N)nc2c1` [uPa_33], which Ki is on record?
Answer: > 100000 nM

Question: For `C=CCNC(=O)Nc1cccc2ccc(N)nc12` [uPa_30], which Ki is on record?
Answer: > 10000 nM

Question: How did the Ki turn out when `N=C(N)c1ccc2cc(C(=O)Nc3ccc4c(c3)C(C3CCCCC3)=NCC4)ccc2c1` [uPa_31] was run?
Answer: 66 nM

Question: Which Ki does the source give for `CCOc1cc(OCC)c(OCC)cc1/C=C/c1cc(Br)c2cc(C(=N)N)ccc2c1` [uPa_38] here?
Answer: 777 nM

Question: For `CC(C)C1c2cc(C3CC3c3cc(/C=C/C4CC4)c4cc(C(=N)N)ccc4c3)ccc2CCN1C` (stereo not drawn) [uPa_43], which Ki is on record?
Answer: 9 nM

Question: For `N#CC(CCOc1cccc2ccc(N)nc12)(c1ccccc1)c1ccccc1` [uPa_16], which Ki is on record?
Answer: > 40000 nM

Question: Which Ki does the source give for `COC(=O)Nc1ccc2nc(N)ccc2c1` [uPa_24] here?
Answer: > 50000 nM

Question: Which Ki does the source give for `N=C(N)c1ccc2cc(NS(=O)(=O)c3ccccc3)ccc2c1` [uPa_14] here?
Answer: 8700 nM

Question: With `CN1CCc2ccc(C3CC3c3ccc4cc(C(=N)N)ccc4c3)cc2C1C1CCC1` (stereo not drawn) [uPa_41] as the molecule, how does the Ki read?
Answer: 42 nM
